# Measured values published in PMC5700102, “Primer synthesis by a eukaryotic-like archaeal primase is independent of its Fe-S cluster” (Nature Communications, 2017).
# Target: T1, PriSLX (Saccharolobus solfataricus, UniProt Q97Z83+Q97ZS7)
# T1 construct: gene priS; heterotrimer co-expressed in E. coli Rosetta2(DE3) from pETDuet PriL/PriS and pRSFDuet PriX; no tag mentioned; PriL 307 and PriX 154 residues; with DNA primase large subunit PriL
# T1 sequence (Q97Z83 1-330): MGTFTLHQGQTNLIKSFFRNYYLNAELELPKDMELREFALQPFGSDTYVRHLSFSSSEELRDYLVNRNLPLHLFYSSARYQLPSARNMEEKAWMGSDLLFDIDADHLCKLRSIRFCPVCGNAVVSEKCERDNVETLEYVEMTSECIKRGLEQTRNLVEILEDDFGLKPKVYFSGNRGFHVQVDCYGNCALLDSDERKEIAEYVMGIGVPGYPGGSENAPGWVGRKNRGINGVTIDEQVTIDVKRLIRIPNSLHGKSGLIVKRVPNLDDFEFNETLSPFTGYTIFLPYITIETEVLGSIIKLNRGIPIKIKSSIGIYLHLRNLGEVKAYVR
# T1 sequence (Q97ZS7 1-154): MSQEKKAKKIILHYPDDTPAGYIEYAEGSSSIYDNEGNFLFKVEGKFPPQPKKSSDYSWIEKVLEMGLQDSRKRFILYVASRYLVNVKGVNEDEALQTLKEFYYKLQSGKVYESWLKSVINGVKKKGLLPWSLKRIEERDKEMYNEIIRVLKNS
# T1 sequence (Q9UWW1 1-307 partner): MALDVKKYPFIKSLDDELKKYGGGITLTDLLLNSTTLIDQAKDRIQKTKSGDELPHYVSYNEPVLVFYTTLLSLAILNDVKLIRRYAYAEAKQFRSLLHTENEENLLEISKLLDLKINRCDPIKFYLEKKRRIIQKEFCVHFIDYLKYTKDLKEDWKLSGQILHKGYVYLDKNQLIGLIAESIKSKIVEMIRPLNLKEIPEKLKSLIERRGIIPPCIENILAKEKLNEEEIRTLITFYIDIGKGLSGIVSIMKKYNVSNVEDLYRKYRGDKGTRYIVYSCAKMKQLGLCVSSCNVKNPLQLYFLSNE
# Assay: X-ray crystal structure, […] Å
# Type: binding
# Details: two molecules bound: PriS active site (elongation site) and PriX initiation site at the PriX-PriS interface; MnCl2
compound,measurement,value
Nc1ncnc2c1ncn2[C@@H]1O[C@H](COP(=O)(O)CP(=O)(O)OP(=O)(O)O)[C@@H](O)[C@H]1O [AMPCPP],"X-ray crystal structure, 2.9 Å",The first AMPCPP was bound in the active site of PriS
